“Also recorded” adds a separate entry of the source.
Tests used:
HSV-1 = type: cell-based, Herpes Simplex Virus 1; conditions: mouse macrophages/BMDMs pre-treated with 1 mM ddhC; MOI 1 or 10; 24 hours; flow cytometry; preliminary
[1] = tested on: TLR-mediated Type 1 interferon signaling; experiment: TLR-mediated Type 1 interferon signaling in macrophages; type: cell-based
ZIKV = conditions: previous study; cited from earlier work
HCV = conditions: previous study; cited from earlier work
WNV = conditions: previous study; cited from earlier work
DV = conditions: previous study; cited from earlier work
flavivirus = conditions: endogenously produced and exogenously administered; Gizzi et al., 2018; cited from earlier work
host cell physiology = conditions: cited from earlier work
Vaccinia virus = type: cell-based
LCMV = type: cell-based, lymphocytic choriomeningitis virus; conditions: BMDMs pre-treated with 1 mM ddhC; MOI 1 or 10; 24 hours; qPCR; preliminary
M. tuberculosis = M. tuberculosis growth in ddhC-stimulated macrophages; type: cell-based, Mycobacterium tuberculosis; conditions: ddhC-stimulated macrophages vs Vehicle or Cytidine; preliminary
[2] = tested on: TLR-mediated NFkB activation; experiment: TLR-mediated NFkB activation, RAW264.7 NFkB reporter cells; type: cell-based; conditions: for TLR-mediated NFkB activation: RAW264.7 NFkB reporter, pre-treated overnight, 500 ng/mL LPS, 1 μg/mL PAM, or 1 μg/mL R848
Viperin expression = Viperin expression in Poly(I:C)-stimulated BMDMs (qPCR); conditions: 1 mM ddhC co-stimulated with 25 ug/mL Poly(I:C)

**Q.** Which results are given for `Nc1ccn([C@@H]2OC(COP(=O)(O)OP(=O)(O)OP(=O)(O)O)=C[C@H]2O)c(=O)n1` [ddhCTP, 3′-deoxy-3′, 4′-didehydro-CTP]?
**A.** HSV-1 replication / infectivity (HSV-1): increases; TLR4-mediated Type 1 interferon induction ([1]; preliminary results): suppresses; suppression of ZIKV (ZIKV): can suppress; suppression of HCV (HCV): can suppress; suppression of WNV (WNV): can suppress; suppression of DV (DV): can suppress; flavivirus infection restriction (flavivirus): restricts; cytotoxic effects on host cell physiology (host cell physiology): no cytotoxic effects; toxicity to the host (host cell physiology): minimal evidence of toxicity

**Q.** Which results are given for `Nc1ccn([C@@H]2OC(CO)=C[C@H]2O)c(=O)n1` [ddhC]?
**A.** HSV-1 replication / infectivity (HSV-1): increases replication; also recorded: increasing; Vaccinia virus infection (Vaccinia virus): negligible effects; LCMV replication (LCMV): suppresses replication; M. tuberculosis growth restriction (M. tuberculosis): lead to restriction; also recorded: restrict M. tuberculosis growth greater than those treated with Vehicle or Cytidine; TLR-mediated NFkB activation [2]: agonize; TLR-mediated NFkB signaling in macrophages ([2]; macrophages, preliminary data): modulates; TLR-mediated Type 1 interferon signaling ([1]; macrophages, preliminary data): modulates; flavivirus infection restriction (flavivirus): restricts; toxicity to the host (host cell physiology): minimal evidence of toxicity; Poly(I:C)-induced Viperin upregulation (Viperin expression): dampened

**Q.** For `Nc1nc2c(ncn2[C@@H]2OC(CO)=C[C@H]2O)c(=O)[nH]1` [ddhG], which “TLR-mediated NFkB activation” value [2] is on record?
**A.** agonize

— patent publication US20230138178A1, “Methods and Compositions for Producing a Heterologous Antiviral Compound in a Host Cell” (priority 2019, published 2023)
